Test results as given in patent publication US20230079757A1, “METHODS AND MATERIALS FOR TREATING CANCER” (Mayo Foundation for Medical Education and Research, priority 2020, published 2023).
Numbering of substitutions follows the chain as printed. l = locked nucleic acid (LNA); d = 2'-deoxy (DNA)

Columns and labels:
Foxa1 protein = assay: Western blot analysis of Foxa1 protein in MyC-CaP cells after ASO transfection; format: cell-based; conditions: MyC-CaP murine prostate cancer cells, 48 hours after transfection, vs control ASO
Experimental: (§1) FIGS. 19A-19B. FOXA1 ASOs sensitize prostate cancer to anti-PD-L1 immunotherapy in mice. (FIG. 19A) Western blot analysis of Foxal protein in MyC-CaP mouse prostate cancer cells at 48 hours after transfection with control ASO (Con ASO), Foxal gene specific ASO1, or Foxa1 gene specific ASO2. Erk2 was used as a loading control. (FIG. 19B) Growth of subcutaneous MyC-CaP prostate tumors in wild type intact FVB male mice. Mice were treated with anti-PD-L1 or non-specific IgG (10 mg/kg) in combination with control ASO (Con ASO) (12.5 mg/kg), Foxal ASO1 (12.5 mg/kg), or Foxa1 ASO2 (12.5 mg/kg) for the indicated number of days. Data shown as means ±s.d. (n=6). Statistical significance was determined by two-way ANOVA (* P<0.05; ** P <0.01; *** P <0.0001).
MyC-CaP murine prostate cancer cells were transfected with control ASO (Con ASO) or two Foxal-specific ASOs (Foxal ASO1 and Foxal ASO2).
The MyC-CaP murine prostate cancer cell line, originally derived from prostate tumors of Hi-Myc transgenic mice in FVB genetic background, was purchased from ATCC (Manassas, Va.).
Antibodies used include anti-FOXA1 antibody (# ab23738, Abcam), anti-ERK2 (# sc-1647, Santa Cruz Biotechnology), anti-mouse PD-L1 mAb (clone 10B5), and InVivoMAb mouse IgG1 isotype control (clone MOPC-21) (# BE0083, Bio X Cell).

MyC-CaP prostate tumors = assay: Growth of subcutaneous MyC-CaP prostate tumors in FVB male mice; format: in vivo; conditions: ASO 12.5 mg/kg intraperitoneal, n=6
Experimental: as §1
MyC-CaP cells (3×10^6) were injected subcutaneously into the right flank of 6-week-old wild-type intact FVB male mice. When the average tumor volume reached approximately 100 mm^3, mice were randomized into groups subsequently treated with intraperitoneal injection of anti-PD-L1 or non-specific control IgG (10 mg/kg) in combination with control antisense oligonucleotides (12.5 mg/kg), Foxal ASO1 (12.5 mg/kg), or Foxal-ASO2 (12.5 mg/kg).
Thirty six 6-week-old wild-type intact FVB mice were purchased from Jackson Laboratories (Bar Harbor, Me.). Tumor volume was measured by digital caliper and calculated using a formula of length×width×width×0.5.

TRAMP-C2 tumors [1] = assay: CyTOF analysis of immune cells in TRAMP-C2 tumors after Poly(I:C); format: in vivo, mice
From the text: (§2) FIGS. 13A-13H. FOXA1 overexpression confers cancer immuno- and chemo-therapy resistance in mice and patients. FIG. 13A) Schematic diagram of generation and Poly(I:C) treatment of TRAMP-C2 prostate tumors in syngeneic mice. FIG. 13B) Growth of TRAMP-C2-Vector and TRAMP-C2-FOXA1ΔαH3 tumors treated with or without Poly(I:C). FIG. 13C) Tumor-free survival of syngeneic mice bearing TRAMP-C2-Vector or TRAMP-C2-FOXA1ΔαH3 tumors administrated with or without Poly(I:C). Statistical significance was determined by Log-rank (Mantel-Cox) test. FIGS. 13D and 13E) PhenoGraph-defined cellular distribution and clustering, as defined by tSNE1 and tSNE2, colored by cellular phenotypes in TRAMP-C2-Vector and TRAMP-C2-FOXA1ΔαH3 tumors from mice at 16 days post vehicle or Poly(I:C) treatment (FIG. 13D). Data were derived from all normalized viable single cells, subjected to the PhenoGraph algorithm. Data in the bar graphs (FIG. 13E) are means ±s.d, n=3. […] Statistical significance was determined by unpaired two-tailed Student's t tests in FIGS. 13E, 13F and 13G. FIG. 13H) Progression-free survival of patients with FOXA1-expression low or high urothelial carcinoma treated with anti-PD1 immunotherapy. Statistical significance was determined by Log-rank (Mantel-Cox) test.
(§3) TRAMP-C2-Vector or TRAMP-C2-FOXA1ΔαH3 cells (3×10^6) were injected subcutaneously into the right flank of 8-week old male C57BL/6 on day 0. Tumors were measured twice per week with calipers and the volume calculated (length×width×width×0.5). Poly I:C (2.5 mg/kg, 100 pl) purchased from Sigma-Aldrich (# P1530) or vehicle (PBS, 100 pl) was administered by intratumoral injection twice per week (five doses in total) and tumors were measured twice per week until the tumor volume reached the maximum allowed size ([…]). For CyTOF and Immunofluorescence experiments, mice were euthanized at 48 hours post the last administration.
Single tumor cells were isolated using the Mouse Tumor Dissociation Kit (Miltenyi Biotec, # 130-096-730) following standard protocol. CyTOF staining panels are detailed in Table 3. […]

TRAMP-C2 tumors [2] = assay: Growth and survival of TRAMP-C2 prostate tumors in syngeneic C57BL/6 mice treated intratumorally with Poly(I:C); format: in vivo
From the text: as §2
To directly explore the role of FOXA1 in inhibiting cancer immune response, stable murine prostate cancer TRAMP-C2 cell lines overexpressing FOXA1-WT, cancer-associated mutant FOXA1-R261G and DNA binding-deficient mutant FOXA1ΔαH3, were established. […]
as §3, with “For CyTOF and Immunofluorescence experiments, mice were euthanized at 48 hours post the last administration.” left out

STAT2 = molecular target: T1, STAT2 (human, UniProt P52630 1-851); assay: co-IP of ectopically expressed proteins in 293T cells (FIG. 11E)
T1 construct: also called endogenous STAT2
T1 sequence (P52630 whole entry): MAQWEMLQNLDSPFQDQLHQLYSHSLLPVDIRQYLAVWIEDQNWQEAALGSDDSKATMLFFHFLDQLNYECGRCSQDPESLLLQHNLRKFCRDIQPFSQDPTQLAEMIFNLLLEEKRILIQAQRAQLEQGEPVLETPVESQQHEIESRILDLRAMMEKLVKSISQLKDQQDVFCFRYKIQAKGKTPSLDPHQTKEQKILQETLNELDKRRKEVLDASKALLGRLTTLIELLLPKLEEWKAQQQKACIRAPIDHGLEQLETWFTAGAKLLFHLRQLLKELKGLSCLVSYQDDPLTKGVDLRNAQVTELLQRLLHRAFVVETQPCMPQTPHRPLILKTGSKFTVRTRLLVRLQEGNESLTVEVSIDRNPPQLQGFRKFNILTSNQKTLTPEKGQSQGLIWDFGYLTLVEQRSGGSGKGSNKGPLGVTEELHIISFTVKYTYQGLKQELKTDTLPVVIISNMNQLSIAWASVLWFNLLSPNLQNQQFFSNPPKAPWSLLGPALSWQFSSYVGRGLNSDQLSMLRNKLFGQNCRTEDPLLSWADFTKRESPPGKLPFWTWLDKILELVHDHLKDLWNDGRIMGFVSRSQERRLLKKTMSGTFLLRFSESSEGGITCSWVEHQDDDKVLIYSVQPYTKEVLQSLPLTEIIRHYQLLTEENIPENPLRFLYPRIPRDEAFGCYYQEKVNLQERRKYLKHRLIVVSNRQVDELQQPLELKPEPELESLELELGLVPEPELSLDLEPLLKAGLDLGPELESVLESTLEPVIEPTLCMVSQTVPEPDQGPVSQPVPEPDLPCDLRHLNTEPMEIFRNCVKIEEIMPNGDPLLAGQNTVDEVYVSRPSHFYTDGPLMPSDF
Experimental: (§4) For extraction of nuclear and cytoplasmic proteins from cells, NE-PER Nuclear and Cytoplasmic Extraction Kit (# 78835, Thermo Fisher Scientific) was used according to the manufacturer's instructions. IP buffer (50 mM Tris-HCl pH7.5, 150 mM NaCl, 1% NP40, 0.5% Sodium Deoxycholate) was used to extract whole cell lysate. P rotein A/G agarose (# 20421, Thermo Fisher Scientific) was used for immunoprecipitation of FOXA1 (# ab23738, Abcam) and Flag-tag (dilution 1:1000; # F1804, Sigma-Aldrich). Monoclonal anti-HA agarose (# A2095, Sigma-Aldrich) was used for HA-tag Co-IP. For glutathione-S-transferase (GST) pulldown assay, GST-tagged STAT2 fragment expressed at E. coli was purified by Glutathione Sepharose 4B beads (# 84-239, Genesee Scientific) and incubated with lysate from 293T cells expressing interested proteins, and GST pulldown assays were performed. For protein co-IP, samples eluted in IP butter were incubated with agarose beads and antibodies overnight at 4° C. and washed with 6 times with IP buffer in the following day. Samples were boiled for 10 minutes in 50 μl sample buffer (2% SDS, 10% glycerol, 10% β-mercaptoethanol, bromophenol blue and Tris-HCl, pH 6.8) and subjected to Western blotting.

[3] = molecular target: T2, GST-tagged STAT2 DNA binding domain (a.a. 312-486) (UniProt P52630 312-486); assay: mutagenesis and GST pull down (FIG. 9E)
T2 construct: range 312-486; also called STAT2-DBD; STAT2 DBD; not shown: GST tag
T2 sequence (looked up): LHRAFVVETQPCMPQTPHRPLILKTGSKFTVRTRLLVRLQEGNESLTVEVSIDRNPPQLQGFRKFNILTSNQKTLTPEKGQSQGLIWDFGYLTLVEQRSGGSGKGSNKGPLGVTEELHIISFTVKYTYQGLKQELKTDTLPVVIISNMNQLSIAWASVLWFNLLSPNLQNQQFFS
Experimental: as §4

## Foxa1 ASO1: LNA/PS antisense oligo +G*+G*+T*A*G*C*G*C*C*A*T*A*A*G*G*A*G*+A*+G*+T (SEQ ID NO: 42) (antisense GGTAGCGCCATAAGGAGAGT; sugars from the 5' end l3 d14 l3, all phosphorothioate, methylation of C not given here)
Foxa1 protein
  Foxa1 protein knockdown: substantially knocked down
MyC-CaP prostate tumors
  tumor growth: significantly inhibited tumor growth

## Foxa1 ASO2: LNA/PS antisense oligo +T*+G*+G*A*T*G*G*C*C*A*T*C*G*+T*+G*+A (SEQ ID NO: 43) (antisense TGGATGGCCATCGTGA; sugars from the 5' end l3 d10 l3, all phosphorothioate, methylation of C not given here)
Foxa1 protein
  Foxa1 protein knockdown: substantially knocked down
MyC-CaP prostate tumors
  tumor growth: significantly inhibited tumor growth

## Poly(I:C)
TRAMP-C2 tumors [1]; TRAMP-C2-FOXA1ΔαH3 tumors
  TILs, especially CD8+ T and NK cells: such effect was diminished
TRAMP-C2 tumors [1]; TRAMP-C2-Vector tumors
  CD11b+Gr1+ myeloid-derived suppressor cells (MDSCs): reduced
  TILs, especially CD8+ T and NK cells: discernibly increased
TRAMP-C2 tumors [2]; TRAMP-C2-FOXA1ΔαH3 tumors, Poly I:C 2.5 mg/kg intratumoral
  tumor growth-inhibitory effect: largely diminished
TRAMP-C2 tumors [2]; TRAMP-C2-Vector tumors, Poly I:C 2.5 mg/kg intratumoral
  overall mouse survival: prolonged
TRAMP-C2 tumors [2]; TRAMP-C2-Vector tumors, Poly I:C 2.5 mg/kg intratumoral twice per week, five doses
  tumor growth: decreased the growth

B1: FOXA1-F266L (other, UniProt P55317 1-472, looked up)
chain: MLGTVKMEGHETSDWNSYYADTQEAYSSVPVSNMNSGLGSMNSMNTYMTMNTMTTSGNMTPASFNMSYANPGLGAGLSPGAVAGMPGGSAGAMNSMTAAGVTAMGTALSPSGMGAMGAQQAASMNGLGPYAAAMNPCMSPMAYAPSNLGRSRAGGGGDAKTFKRSYPHAKPPYSYISLITMAIQQAPSKMLTLSEIYQWIMDLFPYYRQNQQRWQNSIRHSLSFNDCFVKVARSPDKPGKGSYWTLHPDSGNMFENGCYLRRQKRLKCEKQPGAGGGGGSGSGGSGAKGGPESRKDPSGASNPSADSPLHRGVHGKTGQLEGAPAPGPAASPQTLDHSGATATGGASELKTPASSTAPPISSGPGALASVPASHPAHGLAPHESQLHLKGDPHYSFNHPFSINNLMSSSEQQHKLDFKAYEQALQYSPYGSTLPASLPLGSASVTTRSPIEPSALEPAYYQGVYSRPVLNTS
notes: Ectopically expressed in 293T cells
STAT2
  binding result: binds

B2: FOXA1-H247Q (other, UniProt P55317 1-472, looked up)
chain: B1 chain with H247Q, L266F
notes: as for B1
STAT2
  binding result: binds

B3: FOXA1-R261G (other, UniProt P55317 1-472, looked up)
chain: B1 chain with R261G, L266F
notes: as for B1
STAT2
  binding result: binds

B4: FOXA1 forkhead domain-containing region (FKCR, a.a. 141-294) (other, UniProt P55317 141-294, looked up)
chain: MAYAPSNLGRSRAGGGGDAKTFKRSYPHAKPPYSYISLITMAIQQAPSKMLTLSEIYQWIMDLFPYYRQNQQRWQNSIRHSLSFNDCFVKVARSPDKPGKGSYWTLHPDSGNMFENGCYLRRQKRFKCEKQPGAGGGGGSGSGGSGAKGGPESR
notes: Expressed in 293T cells, and the lysate was used for GST pulldown; also called FOXA1-FKCR
[3]
  binding result: binds
